# Test results from US8841321B2, “Quinoline derivatives as antibacterial agents” (Janssen Pharmaceutica NV, priority 2005, dated 2014).
# How the values were obtained:
# [1] = tested on: LMO 49594 (Listeria monocytogenes (ATCC49594)); assay: Microtitre plate assay, IC90 determination; format: cell-based; settings: Listeria monocytogenes (ATCC49594)
# [2] = tested on: EFA 29212 (Enterococcus faecalis (ATCC29212)); assay: Microtitre plate assay, IC90 determination; format: cell-based; settings: for IC90 (μg/ml) EFA 29212: Enterococcus faecalis (ATCC29212); for IC90: Enterococcus faecalis, ATCC29212, Enterococcus faecalis (ATCC29212), read-out: IC90 (μg/ml) EFA 29212
# [3] = tested on: SPY 8668 (Streptococcus pyogens (ATCC8668)); assay: Microtitre plate assay, IC90 determination; format: cell-based; settings: for IC90: Streptococcus, ATCC8668, Streptococcus pyogens (ATCC8668), read-out: IC90 (μg/ml) SPY 8668; for IC90 (μg/ml) SPY 8668: Streptococcus pyogens (ATCC8668)
# [4] = tested on: STA 29213 (Staphylococcus aureus (ATCC29213)); assay: Microtitre plate assay, IC90 determination; format: cell-based; settings: for IC90 (μg/ml) STA 29213: Staphylococcus aureus (ATCC29213)
# How it was run: (§1)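 Growth-inhibition endpoint: resazurin added 3 h after inoculation, plates incubated overnight, fluorescence at 530/590 nm after 24 h at 37 °C. Inocula of roughly 10–60 CFU per well in Mueller-Hinton medium; compounds titrated five-fold. IC90 reported as μg/ml.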
# [5] = tested on: SPN 6305 (Streptococcus pneumoniae (ATCC6305)); assay: Microtitre plate assay, IC90 determination; format: cell-based; settings: for IC90 (μg/ml) SPN 6305: Streptococcus pneumoniae (ATCC6305)
# How it was run: as §1
# [6] = tested on: BSU 43639 (Bacillus subtilis (ATCC43639)); assay: Microtitre plate assay, IC90 determination; format: cell-based; settings: Bacillus subtilis (ATCC43639)
# [7] = tested on: PAE 27853 (Pseudomonas aeruginosa (ATCC27853)); assay: Microtitre plate assay, IC90 determination; format: cell-based; settings: for IC90 (μg/ml) PAE 27853: Pseudomonas aeruginosa (ATCC27853); for IC90: Pseudomonas aeruginosa, ATCC27853, Pseudomonas aeruginosa (ATCC27853), read-out: IC90 (μg/ml) PAE 27853
# [8] = tested on: STA RMETH (methicilline resistant Staphylococcus aureus (MRSA), a clinical isolate from the University of Antwerp); assay: Microtitre plate assay, IC90 determination; format: cell-based
# [9] = tested on: STA 25923 (Staphylococcus aureus (ATCC25923)); assay: Microtitre plate assay, IC90 determination; format: cell-based; settings: Staphylococcus aureus (ATCC25923)
# [10] = tested on: methicillin resistant S. aureus (MRSA); assay: Time kill assay (broth microdilution method); format: cell-based, Staphylococcus aureus
# From the text: (§2) Bactericidal or bacteriostatic activity of the compounds may be determined in a time kill assay using the broth microdilution method*. In a time kill assay on Staphylococcus aureus and methicillin resistant S. aureus (MRSA), the starting inoculum of S. aurues and MRSA is 10^6 CPU/ml in Muller Hinton broth. The antibacterial compounds are used at the concentration of 0.1 to 10 times the MIC (i.e. IC90 as determined in microtitre plate assay). Wells receiving no antibacterial agent constitute the culture growth control. The plates containing the microorganism and the test compounds are incubated at 37° C. After 0, 4, 24, and 48 hrs of incubation samples are removed for determination of viable counts by serial dilution (10^−1 to 10^−6) in sterile PBS and plating (200 μl) on Mueller Hinton agar. The plates are incubated at 37° C. for 24 hours and the number of colonies are determined. Killing curves can be constructed by plotting the log10CFU per ml versus time. A bactericidal effect is commonly defined as 3-log10 decrease in number of CFU per ml as compared to untreated inoculum. The potential carryover effect of the drugs is removed by serial dilutions and counting the colonies at highest dilution used for plating. No carryover effect is observed at the dilution of 10^−2 used for plating. […] Antimicrob. Agents Chemother. 40, 839-845 (1996).
# Staphylococcus aureus = assay: Time kill assay (broth microdilution method); format: cell-based; settings: S. aureus; for bactericidal activity in time kill assay: observed at 1 and 10 times MIC90
# From the text: as §2
IC90 (μg/ml) LMO 49594 [1] [µg/mL],melting point [°C],IC90 (μg/ml) EFA 29212 [2] [µg/mL],IC90 [3] [µg/mL],IC90 (μg/ml) STA 29213 [4] [µg/mL],IC90 (μg/ml) SPN 6305 [5] [µg/mL],IC90 (μg/ml) BSU 43639 [6] [µg/mL],IC90 (μg/ml) PAE 27853 [7] [µg/mL],IC90 (μg/ml) STA RMETH [8] [µg/mL],IC90 (μg/ml) STA 25923 [9] [µg/mL],IC90 (μg/ml) SPY 8668 [3] [µg/mL],IC90 [2] [µg/mL],IC90 [7] [µg/mL],"IC90 ([4]; Staphylococcus aureus, ATCC29213, Staphylococcus aureus (ATCC29213), read-out: IC90 (μg/ml) STA 29213) [µg/mL]","IC90 ([5]; Streptococcus pneumoniae, ATCC6305, Streptococcus pneumoniae (ATCC6305), read-out: IC90 (μg/ml) SPN 6305) [µg/mL]","IC90 ([8]; Staphylococcus aureus, MRSA, read-out: IC90 (μg/ml) STA RMETH) [µg/mL]",SMILES,bactericidal activity in time kill assay [10],MIC (1×MIC; MIC i.e. IC90 as determined in microtitre plate assay) (Staphylococcus aureus) [µg/mL],growth of treated samples in time kill assay (Staphylococcus aureus; at 0.1 times the MIC),bactericidal activity in time kill assay (Staphylococcus aureus)
1.9,96,1.9,1.5,1.9,2.4,1.9,1.9,1.9,–,–,–,–,–,–,–,"COc1ccc2cc(C(O)(CCCCN(C)C)C(c3ccccc3)c3cc4cc(Br)ccc4nc3OC)ccc2c1 (single isomer, unassigned) [Compound 5]",–,–,–,–
5.8,170,5.2,–,9.3,11.6,5.2,2.3,10.4,2.3,4.6,–,–,–,–,–,COc1nc2ccc(Br)cc2cc1C(c1ccccc1)C(O)(CCCCN(C)C)c1ccc2ccccc2c1 (stereo not shown) [Compound 17],–,–,–,–
–,–,46.4,–,46.4,2.9,–,23.2,–,–,11.6,–,–,–,–,–,COc1nc2ccc(Br)cc2cc1C(c1ccccc1)C(O)(CCCCN(C)C)c1ccc2ccccc2c1 (stereo not shown) [Compound 18],marked bactericidal activity,12,followed the control in growth,bactericidal activity
11.6,166,4.1,–,9.3,58.4,58.4,4.1,58.4,46.4,46.4,–,–,–,–,–,COc1nc2ccc(Br)cc2cc1C(c1ccccc1)C(O)(CCCCN(C)C)c1ccc2ccccc2c1 (stereo not shown) [Compound 22],–,–,–,–
–,179,8.5,–,3.8,1.9,–,2.7,10.7,–,8.5,–,–,–,–,–,COc1ccc2cc(C(O)(CCCCN(C)C)C(c3ccccc3)c3cc4ccccc4nc3OC)ccc2c1 (stereo not shown) [Compound 34],–,–,–,–
–,182,–,9.1,4.5,11.4,–,–,2.3,–,–,7.2,9.1,–,–,–,COc1nc2ccc(-c3ccco3)cc2cc1C(c1ccccc1)C(O)(CCCCN(C)C)c1ccc2ccccc2c1 (stereo not shown) [Compound 38],–,–,–,–
–,121,–,1.64,–,–,–,–,–,–,–,1.64,8.23,1.64,0.41,9.2,CNCCCCC(O)(c1ccccc1)C(c1ccccc1)c1cc2cc(Br)ccc2nc1OC (stereo not shown) [Compound 53],–,–,–,–
–,–,–,–,–,–,–,–,–,–,–,–,–,–,–,–,"O=C(O)c1cn(C2CC2)c2cc(N3CCNCC3)c(F)cc2c1=O [ciprofloxacin, reference compound]",no bactericidal effect,–,–,bactericidal activity
